The target in assay [1] is Serine/threonine-protein kinase PAK 2 (Homo sapiens, UniProt Q13177).
For assay [2], the target named is Calcium/calmodulin-dependent protein kinase kinase 2 (Homo sapiens, UniProt Q96RR4).
The target of assay [3] is Casein kinase I isoform epsilon (Homo sapiens, UniProt P49674).
In assay [4] the target is Structural maintenance of chromosomes protein 2 (Homo sapiens, UniProt O95347).
Assay [5] concerns the target Macrophage-stimulating protein receptor (Homo sapiens, UniProt Q04912).
The target in assay [6] is T1, Serine/threonine-protein kinase ICK (Homo sapiens, UniProt Q9UPZ9).
T1 sequence (Q9UPZ9 whole entry): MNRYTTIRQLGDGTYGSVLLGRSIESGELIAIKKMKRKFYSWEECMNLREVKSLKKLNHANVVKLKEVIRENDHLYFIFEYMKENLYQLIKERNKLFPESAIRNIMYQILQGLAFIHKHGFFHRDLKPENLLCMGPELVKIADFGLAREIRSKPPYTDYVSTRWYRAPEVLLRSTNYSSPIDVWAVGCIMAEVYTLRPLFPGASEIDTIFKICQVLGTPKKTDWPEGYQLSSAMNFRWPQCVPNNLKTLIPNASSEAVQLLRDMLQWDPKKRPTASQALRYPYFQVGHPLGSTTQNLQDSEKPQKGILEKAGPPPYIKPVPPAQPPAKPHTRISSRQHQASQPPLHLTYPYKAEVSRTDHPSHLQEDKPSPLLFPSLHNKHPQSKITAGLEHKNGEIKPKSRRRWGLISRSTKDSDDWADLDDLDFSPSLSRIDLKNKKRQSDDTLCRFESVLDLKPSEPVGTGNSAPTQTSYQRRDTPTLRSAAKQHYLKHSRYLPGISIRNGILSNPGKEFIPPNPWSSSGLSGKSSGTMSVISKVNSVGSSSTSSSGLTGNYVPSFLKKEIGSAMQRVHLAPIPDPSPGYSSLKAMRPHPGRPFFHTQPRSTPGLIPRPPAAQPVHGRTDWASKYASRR

For assay [7], the target named is T2, Ephrin type-B receptor 2 (Homo sapiens, UniProt P29323).
T2 sequence (P29323 whole entry): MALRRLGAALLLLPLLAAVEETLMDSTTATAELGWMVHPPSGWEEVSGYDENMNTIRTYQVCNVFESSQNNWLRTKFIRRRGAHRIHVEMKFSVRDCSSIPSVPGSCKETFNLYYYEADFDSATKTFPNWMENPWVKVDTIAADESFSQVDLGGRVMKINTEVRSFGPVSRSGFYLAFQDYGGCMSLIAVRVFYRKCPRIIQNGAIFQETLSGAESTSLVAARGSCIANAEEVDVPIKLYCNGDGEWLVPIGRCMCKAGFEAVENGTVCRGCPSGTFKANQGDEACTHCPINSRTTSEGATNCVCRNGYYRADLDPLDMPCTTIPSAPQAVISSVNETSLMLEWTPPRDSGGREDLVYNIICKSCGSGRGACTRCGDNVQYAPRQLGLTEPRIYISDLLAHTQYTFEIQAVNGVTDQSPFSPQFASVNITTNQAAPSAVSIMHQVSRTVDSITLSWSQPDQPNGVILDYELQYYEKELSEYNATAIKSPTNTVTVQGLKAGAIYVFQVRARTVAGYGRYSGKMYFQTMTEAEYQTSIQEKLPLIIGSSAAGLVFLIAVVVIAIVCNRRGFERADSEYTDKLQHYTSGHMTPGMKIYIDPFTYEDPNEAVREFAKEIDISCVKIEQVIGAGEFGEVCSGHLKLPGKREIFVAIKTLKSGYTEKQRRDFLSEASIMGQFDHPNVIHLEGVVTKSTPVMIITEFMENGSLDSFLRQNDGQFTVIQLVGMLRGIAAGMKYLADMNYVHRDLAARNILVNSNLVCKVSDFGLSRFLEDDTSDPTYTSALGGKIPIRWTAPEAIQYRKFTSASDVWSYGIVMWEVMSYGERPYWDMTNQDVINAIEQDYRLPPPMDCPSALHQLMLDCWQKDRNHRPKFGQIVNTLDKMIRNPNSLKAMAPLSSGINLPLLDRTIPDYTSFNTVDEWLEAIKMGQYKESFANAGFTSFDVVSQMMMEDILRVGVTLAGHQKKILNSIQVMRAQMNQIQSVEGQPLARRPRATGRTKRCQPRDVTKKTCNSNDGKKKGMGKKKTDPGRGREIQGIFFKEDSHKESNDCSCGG

Assay [8] deals with Cyclin-dependent kinase 1 (Homo sapiens, UniProt P06493).
In assay [9] the target is T3, Serine/threonine-protein kinase Chk1 (Homo sapiens, UniProt O14757).
T3 sequence (O14757 whole entry): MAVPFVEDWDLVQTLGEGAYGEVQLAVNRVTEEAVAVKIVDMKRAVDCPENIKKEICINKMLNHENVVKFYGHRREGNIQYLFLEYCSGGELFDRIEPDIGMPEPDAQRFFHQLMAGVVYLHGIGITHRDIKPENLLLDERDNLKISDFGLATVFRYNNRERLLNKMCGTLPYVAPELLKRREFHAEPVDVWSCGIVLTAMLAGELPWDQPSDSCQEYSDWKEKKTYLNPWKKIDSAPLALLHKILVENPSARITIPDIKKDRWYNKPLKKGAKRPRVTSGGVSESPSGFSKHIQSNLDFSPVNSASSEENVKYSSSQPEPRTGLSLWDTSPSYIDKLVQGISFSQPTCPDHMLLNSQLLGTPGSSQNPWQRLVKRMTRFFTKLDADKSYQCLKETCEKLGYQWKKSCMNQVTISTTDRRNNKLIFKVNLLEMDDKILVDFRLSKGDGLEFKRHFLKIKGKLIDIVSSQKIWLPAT

The source made the active and inactive calls. For most assays here, no stated cut-off is given here; in the data, actives have a measured Kd and inactives only a lower limit. A value given as a limit tells only on which side of the number the result lay.

Cyclin-dependent kinase 1, sequence (P06493 whole entry): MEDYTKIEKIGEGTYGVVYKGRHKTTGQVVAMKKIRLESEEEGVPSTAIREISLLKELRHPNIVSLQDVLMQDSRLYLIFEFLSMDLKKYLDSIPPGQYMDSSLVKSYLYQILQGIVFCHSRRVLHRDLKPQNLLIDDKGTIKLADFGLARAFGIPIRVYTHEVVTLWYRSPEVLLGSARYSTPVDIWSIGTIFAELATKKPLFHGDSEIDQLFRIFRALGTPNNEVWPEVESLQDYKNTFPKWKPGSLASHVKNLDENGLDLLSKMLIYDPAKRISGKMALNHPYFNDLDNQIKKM
Serine/threonine-protein kinase PAK 2, sequence (Q13177 whole entry): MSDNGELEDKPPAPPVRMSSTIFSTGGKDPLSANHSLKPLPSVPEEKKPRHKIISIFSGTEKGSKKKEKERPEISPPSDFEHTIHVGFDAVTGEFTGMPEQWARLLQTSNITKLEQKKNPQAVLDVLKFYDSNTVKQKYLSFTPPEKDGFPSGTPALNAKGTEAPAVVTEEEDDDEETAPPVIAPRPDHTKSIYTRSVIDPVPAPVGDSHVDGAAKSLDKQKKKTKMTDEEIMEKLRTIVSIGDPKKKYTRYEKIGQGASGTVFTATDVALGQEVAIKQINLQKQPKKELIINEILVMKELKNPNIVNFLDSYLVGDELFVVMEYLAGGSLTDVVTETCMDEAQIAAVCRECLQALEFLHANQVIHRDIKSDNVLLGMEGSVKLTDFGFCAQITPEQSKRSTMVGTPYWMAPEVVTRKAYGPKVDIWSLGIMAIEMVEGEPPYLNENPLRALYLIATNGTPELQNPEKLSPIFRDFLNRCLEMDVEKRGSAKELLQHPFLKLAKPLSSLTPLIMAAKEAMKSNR
Calcium/calmodulin-dependent protein kinase kinase 2, sequence (Q96RR4 whole entry, canonical isoform): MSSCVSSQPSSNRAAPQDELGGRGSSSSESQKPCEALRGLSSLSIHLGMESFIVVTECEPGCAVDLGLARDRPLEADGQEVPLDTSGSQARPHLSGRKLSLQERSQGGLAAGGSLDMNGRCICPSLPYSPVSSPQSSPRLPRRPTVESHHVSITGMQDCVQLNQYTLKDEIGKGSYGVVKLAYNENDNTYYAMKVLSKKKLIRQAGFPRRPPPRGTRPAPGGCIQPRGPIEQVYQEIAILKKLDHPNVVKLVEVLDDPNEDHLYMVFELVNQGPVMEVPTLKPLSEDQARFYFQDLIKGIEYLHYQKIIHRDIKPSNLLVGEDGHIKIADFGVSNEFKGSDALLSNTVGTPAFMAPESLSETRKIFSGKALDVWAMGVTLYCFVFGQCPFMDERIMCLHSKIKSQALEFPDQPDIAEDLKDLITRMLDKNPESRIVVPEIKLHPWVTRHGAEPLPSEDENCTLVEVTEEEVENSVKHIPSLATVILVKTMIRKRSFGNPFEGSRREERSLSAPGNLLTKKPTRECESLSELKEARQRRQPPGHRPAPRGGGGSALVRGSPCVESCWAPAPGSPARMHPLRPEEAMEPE
Macrophage-stimulating protein receptor, sequence (Q04912 25-304 limits assumed): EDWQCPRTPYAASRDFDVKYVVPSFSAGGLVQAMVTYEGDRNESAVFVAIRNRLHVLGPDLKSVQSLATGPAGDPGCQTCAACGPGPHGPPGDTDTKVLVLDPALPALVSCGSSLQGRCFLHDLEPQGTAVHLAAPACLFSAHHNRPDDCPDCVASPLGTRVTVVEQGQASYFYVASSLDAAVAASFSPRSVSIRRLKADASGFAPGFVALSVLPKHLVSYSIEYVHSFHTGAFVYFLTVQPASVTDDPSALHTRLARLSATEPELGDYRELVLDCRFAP
Macrophage-stimulating protein receptor, sequence (Q04912 310-1400 limits assumed): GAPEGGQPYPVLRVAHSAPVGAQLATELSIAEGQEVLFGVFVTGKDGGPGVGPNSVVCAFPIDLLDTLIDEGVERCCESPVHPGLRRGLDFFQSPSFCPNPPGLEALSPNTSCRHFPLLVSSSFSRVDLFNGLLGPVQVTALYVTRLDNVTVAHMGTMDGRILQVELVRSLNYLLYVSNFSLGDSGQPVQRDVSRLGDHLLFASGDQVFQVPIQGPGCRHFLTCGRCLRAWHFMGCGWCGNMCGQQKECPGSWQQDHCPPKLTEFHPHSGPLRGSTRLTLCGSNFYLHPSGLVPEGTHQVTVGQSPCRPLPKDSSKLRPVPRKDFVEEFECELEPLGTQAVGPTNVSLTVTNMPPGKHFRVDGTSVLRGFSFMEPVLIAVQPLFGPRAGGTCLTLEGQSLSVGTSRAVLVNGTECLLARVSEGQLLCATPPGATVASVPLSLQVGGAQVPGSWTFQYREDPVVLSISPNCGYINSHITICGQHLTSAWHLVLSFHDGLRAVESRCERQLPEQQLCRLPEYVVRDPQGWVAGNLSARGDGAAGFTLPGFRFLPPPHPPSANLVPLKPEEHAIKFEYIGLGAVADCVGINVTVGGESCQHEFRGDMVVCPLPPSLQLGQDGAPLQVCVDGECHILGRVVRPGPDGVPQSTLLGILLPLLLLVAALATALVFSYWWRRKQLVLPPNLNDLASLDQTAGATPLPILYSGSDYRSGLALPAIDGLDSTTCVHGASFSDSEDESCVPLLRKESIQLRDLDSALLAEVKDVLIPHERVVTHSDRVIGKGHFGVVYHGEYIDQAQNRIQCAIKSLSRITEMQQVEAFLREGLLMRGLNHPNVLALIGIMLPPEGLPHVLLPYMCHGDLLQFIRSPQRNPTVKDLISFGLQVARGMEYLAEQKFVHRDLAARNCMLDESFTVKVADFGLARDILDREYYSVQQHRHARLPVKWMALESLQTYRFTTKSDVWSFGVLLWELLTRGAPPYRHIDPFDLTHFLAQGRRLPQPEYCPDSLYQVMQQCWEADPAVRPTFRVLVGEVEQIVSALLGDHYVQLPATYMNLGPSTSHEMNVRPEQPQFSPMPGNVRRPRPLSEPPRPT
Structural maintenance of chromosomes protein 2, sequence (O95347 whole entry): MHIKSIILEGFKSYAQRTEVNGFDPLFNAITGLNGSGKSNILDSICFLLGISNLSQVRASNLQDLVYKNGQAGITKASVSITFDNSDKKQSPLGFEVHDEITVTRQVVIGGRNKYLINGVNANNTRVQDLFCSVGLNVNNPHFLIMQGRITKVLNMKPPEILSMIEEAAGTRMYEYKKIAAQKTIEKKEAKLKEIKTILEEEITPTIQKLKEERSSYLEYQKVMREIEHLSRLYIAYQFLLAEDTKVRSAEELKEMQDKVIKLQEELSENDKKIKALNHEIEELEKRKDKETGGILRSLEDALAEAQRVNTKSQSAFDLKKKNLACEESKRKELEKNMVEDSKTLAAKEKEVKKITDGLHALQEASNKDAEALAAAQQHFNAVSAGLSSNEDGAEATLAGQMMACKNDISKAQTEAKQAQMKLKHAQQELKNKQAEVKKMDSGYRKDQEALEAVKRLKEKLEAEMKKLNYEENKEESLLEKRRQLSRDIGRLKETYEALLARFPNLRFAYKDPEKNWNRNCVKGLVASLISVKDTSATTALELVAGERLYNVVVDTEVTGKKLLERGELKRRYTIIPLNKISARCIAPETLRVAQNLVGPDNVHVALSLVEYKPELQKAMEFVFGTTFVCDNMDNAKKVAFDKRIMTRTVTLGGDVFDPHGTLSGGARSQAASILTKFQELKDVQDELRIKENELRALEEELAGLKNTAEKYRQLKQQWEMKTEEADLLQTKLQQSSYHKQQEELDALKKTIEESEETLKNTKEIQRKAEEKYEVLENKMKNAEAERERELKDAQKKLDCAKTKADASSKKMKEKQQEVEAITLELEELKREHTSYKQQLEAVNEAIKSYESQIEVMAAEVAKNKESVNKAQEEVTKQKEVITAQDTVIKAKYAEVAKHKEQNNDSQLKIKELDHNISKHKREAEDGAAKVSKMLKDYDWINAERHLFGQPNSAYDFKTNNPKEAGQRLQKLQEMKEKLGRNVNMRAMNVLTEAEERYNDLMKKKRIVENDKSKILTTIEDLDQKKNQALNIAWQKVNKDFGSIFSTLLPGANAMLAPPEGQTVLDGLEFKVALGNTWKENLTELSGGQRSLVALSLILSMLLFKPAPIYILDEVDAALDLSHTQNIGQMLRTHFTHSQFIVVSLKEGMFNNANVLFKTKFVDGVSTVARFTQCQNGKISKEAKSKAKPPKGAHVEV
Casein kinase I isoform epsilon, sequence (P49674 whole entry, canonical isoform): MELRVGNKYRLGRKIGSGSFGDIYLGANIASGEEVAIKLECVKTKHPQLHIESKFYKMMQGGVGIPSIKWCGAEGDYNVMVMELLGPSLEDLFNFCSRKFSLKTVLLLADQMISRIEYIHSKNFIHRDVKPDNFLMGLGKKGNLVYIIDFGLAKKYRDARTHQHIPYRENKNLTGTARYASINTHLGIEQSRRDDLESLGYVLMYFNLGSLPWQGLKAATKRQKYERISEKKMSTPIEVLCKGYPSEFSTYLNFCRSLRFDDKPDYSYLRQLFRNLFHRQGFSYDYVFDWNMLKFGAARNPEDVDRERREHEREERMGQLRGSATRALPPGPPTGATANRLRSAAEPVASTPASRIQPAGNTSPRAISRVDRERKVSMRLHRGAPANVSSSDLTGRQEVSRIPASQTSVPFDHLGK

Usually Kd stands for the concentration at which binding is half-saturated. On to `Cc1nc(N)sc1-c1ccnc(Nc2ccc(N3CCOCC3)cc2)n1` [CYC-116], for which the Kd is > 30 µM (inactive) in [1]; 52.8 µM (active) in assay [2]; 0.841 µM (active) in [3]; > 30 µM (inactive) in assay [4]; 0.575 µM (active) in assay [5].
Consider `Cc1cc(Nc2cc(N3CCN(C)CC3)nc(/C=C/c3ccccc3)n2)n[nH]1` [ENMD-2076], for which the Kd in assay [1], in assay [2], in assay [3], in assay [6], in assay [4] and in assay [7] was > 30 µM (inactive) in each case.
Consider `O=C(Nc1cccc(Cl)c1)Nc1ncc(CCNc2ncnc3ccsc23)s1` [SNS-314], for which the Kd in assay [1], in [2], in assay [3], in [6], in assay [4] and in [7] was > 30 µM (inactive) in each case.
On to `Nc1nc(N)c2nc(-c3cccc(O)c3)c(-c3cccc(O)c3)nc2n1` [TG100-115], for which the Kd in [8] and in assay [4] was > 30 µM (inactive) each time.
On to `CN1CCN(c2ccc3nc(-c4c(N)c5c(F)cccc5[nH]c4=O)[nH]c3c2)CC1` [DOVITINIB], for which the Kd in assay [8] and in assay [4] was > 30 µM (inactive) in each case.
In the case of `O=C(O)[C@]1(Cc2cccc(Nc3nccs3)n2)CC[C@@H](Oc2cccc(Cl)c2F)CC1` [MK-5108], the Kd in assay [8], in [1], in assay [2], in assay [3], in assay [9] and in assay [6] was > 30 µM (inactive) throughout. Moreover, the Kd in assay [4], in assay [5] and in assay [7] was > 30 µM (inactive) each time.
Regarding `CCc1cnn2c(NCc3ccc[n+]([O-])c3)cc(N3CCCC[C@H]3CCO)nc12` [DINACICLIB], the Kd in [1] was > 30 µM (inactive); in assay [2], > 30 µM (inactive); in assay [3], > 30 µM (inactive); in [6] it was 0.271 µM (active); in assay [4], > 30 µM (inactive); in assay [7], > 30 µM (inactive).
`OCCn1cc(-c2cnc3nnn(Cc4ccc5ncccc5c4)c3n2)cn1` [PF-04217903]: the Kd in assay [8], in assay [1], in [2], in assay [3], in assay [6] and in assay [4] was > 30 µM (inactive) in each case. Also, the Kd in [7] was > 30 µM (inactive).
In the case of `COc1cc(CCc2cc(NC(=O)c3ccc(N4C[C@@H](C)N[C@@H](C)C4)cc3)n[nH]2)cc(OC)c1` [AZD-4547], the Kd in [8], in assay [1], in assay [2], in assay [3], in assay [9] and in assay [6] was > 30 µM (inactive) each time. Also, the Kd in [4], in [5] and in [7] was > 30 µM (inactive) each time.
Regarding `CCn1c(-c2nonc2N)nc2c(C#CC(C)(C)O)ncc(OC[C@H]3CCCNC3)c21` [GSK-690693], the values for the Kd in assay [8] and in assay [4] were > 30 µM (inactive) and 1.11 µM (active), respectively.
With `COc1cc2nccc(Oc3ccc(NC(=O)NC4CC4)c(Cl)c3)c2cc1C(N)=O` [LENVATINIB], the Kd in assay [8], in assay [1], in assay [2], in assay [9], in [6] and in [4] was > 30 µM (inactive) each time. In addition, the Kd in assay [5] and in assay [7] was > 30 µM (inactive) each time.
Consider `Cc1cn(-c2cc(NC(=O)c3ccc(C)c(Nc4nccc(-c5cccnc5)n4)c3)cc(C(F)(F)F)c2)cn1` [NILOTINIB], for which the Kd in [8] and in assay [4] was > 30 µM (inactive) in each case.

(Values after ChEMBL document CHEMBL3991601, “The target landscape of clinical kinase drugs” (Science, 2017).)
